Data reported in publication PMC7424564 (Pharmacology Research & Perspectives, 2020).
In brackets after ≈: the same amount, converted by molar mass. Several values for one entry are separate records, joined by “and”; a condition that tells them apart may be missing. Equal entries are not always repeated. Entries after “also recorded” stand apart in the source; their conditions may differ. Where two headings read alike, the source gives them in different places.

How the values were obtained:
TMD8 cells [1] = assay: Cell washout cytotoxicity assay; conditions: TMD‐8 cells
mutant BTK (C481S) [2] = conditions: cited from earlier work
mutant BTK (C481S) [3] = target: mutant BTK (C481S) (Homo sapiens, UniProt Q06187, C481S); assay: BTK enzyme activity assay; type: biochemical
Chain of mutant BTK (C481S) (Homo sapiens, UniProt Q06187, C481S) (Q06187 whole entry C481S): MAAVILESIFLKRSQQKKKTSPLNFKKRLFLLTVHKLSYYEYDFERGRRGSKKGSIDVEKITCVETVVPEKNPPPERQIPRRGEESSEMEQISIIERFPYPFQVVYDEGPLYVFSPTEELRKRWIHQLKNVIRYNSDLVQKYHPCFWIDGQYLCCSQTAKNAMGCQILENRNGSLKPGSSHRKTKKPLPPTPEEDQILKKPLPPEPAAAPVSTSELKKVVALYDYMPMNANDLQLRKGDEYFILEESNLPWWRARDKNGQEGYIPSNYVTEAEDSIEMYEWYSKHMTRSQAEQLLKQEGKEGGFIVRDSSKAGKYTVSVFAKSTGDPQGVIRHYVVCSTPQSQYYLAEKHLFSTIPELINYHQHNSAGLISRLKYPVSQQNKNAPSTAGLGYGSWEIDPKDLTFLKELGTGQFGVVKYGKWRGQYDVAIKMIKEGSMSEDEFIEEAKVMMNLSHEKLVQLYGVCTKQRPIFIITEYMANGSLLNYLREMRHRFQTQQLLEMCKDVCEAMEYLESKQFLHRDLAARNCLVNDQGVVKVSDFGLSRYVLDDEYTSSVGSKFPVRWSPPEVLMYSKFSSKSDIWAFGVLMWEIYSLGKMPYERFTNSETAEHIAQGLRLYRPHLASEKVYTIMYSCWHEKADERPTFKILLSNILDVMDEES

BTK‐WT = BTK‐WT (Homo sapiens, UniProt Q06187); assay: Ki determination with Omnia Tyr peptide kit; type: biochemical
Chain of BTK‐WT (Q06187 whole entry): as the sequence (Q06187 whole entry C481S) above, with S481C counted along it

BTK [4] = target: T1, BTK (Homo sapiens, UniProt Q06187); assay: Kinase profiling; type: biochemical
T1 sequence (Q06187 whole entry): as the sequence (Q06187 whole entry C481S) above, with S481C counted along it

HCK = HCK (Homo sapiens, UniProt P08631); assay: Kinase profiling; type: biochemical
Chain of HCK (P08631 whole entry): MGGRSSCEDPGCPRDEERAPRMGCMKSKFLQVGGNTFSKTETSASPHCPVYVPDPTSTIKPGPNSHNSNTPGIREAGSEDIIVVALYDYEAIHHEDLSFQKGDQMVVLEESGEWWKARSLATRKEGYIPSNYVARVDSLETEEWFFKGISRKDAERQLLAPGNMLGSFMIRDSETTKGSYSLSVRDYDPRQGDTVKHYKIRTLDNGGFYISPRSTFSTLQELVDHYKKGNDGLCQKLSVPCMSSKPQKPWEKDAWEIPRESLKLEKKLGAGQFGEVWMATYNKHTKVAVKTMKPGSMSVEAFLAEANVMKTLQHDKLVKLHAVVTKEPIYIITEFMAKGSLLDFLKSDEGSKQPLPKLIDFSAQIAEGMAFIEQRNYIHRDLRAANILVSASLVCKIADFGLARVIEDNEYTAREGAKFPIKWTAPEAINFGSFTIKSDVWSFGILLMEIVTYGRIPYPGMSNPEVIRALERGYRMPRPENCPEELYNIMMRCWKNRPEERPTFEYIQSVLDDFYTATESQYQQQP

JAK3 = JAK3 (Homo sapiens, UniProt P52333); assay: Kinase profiling; type: biochemical
Chain of JAK3 (P52333 whole entry): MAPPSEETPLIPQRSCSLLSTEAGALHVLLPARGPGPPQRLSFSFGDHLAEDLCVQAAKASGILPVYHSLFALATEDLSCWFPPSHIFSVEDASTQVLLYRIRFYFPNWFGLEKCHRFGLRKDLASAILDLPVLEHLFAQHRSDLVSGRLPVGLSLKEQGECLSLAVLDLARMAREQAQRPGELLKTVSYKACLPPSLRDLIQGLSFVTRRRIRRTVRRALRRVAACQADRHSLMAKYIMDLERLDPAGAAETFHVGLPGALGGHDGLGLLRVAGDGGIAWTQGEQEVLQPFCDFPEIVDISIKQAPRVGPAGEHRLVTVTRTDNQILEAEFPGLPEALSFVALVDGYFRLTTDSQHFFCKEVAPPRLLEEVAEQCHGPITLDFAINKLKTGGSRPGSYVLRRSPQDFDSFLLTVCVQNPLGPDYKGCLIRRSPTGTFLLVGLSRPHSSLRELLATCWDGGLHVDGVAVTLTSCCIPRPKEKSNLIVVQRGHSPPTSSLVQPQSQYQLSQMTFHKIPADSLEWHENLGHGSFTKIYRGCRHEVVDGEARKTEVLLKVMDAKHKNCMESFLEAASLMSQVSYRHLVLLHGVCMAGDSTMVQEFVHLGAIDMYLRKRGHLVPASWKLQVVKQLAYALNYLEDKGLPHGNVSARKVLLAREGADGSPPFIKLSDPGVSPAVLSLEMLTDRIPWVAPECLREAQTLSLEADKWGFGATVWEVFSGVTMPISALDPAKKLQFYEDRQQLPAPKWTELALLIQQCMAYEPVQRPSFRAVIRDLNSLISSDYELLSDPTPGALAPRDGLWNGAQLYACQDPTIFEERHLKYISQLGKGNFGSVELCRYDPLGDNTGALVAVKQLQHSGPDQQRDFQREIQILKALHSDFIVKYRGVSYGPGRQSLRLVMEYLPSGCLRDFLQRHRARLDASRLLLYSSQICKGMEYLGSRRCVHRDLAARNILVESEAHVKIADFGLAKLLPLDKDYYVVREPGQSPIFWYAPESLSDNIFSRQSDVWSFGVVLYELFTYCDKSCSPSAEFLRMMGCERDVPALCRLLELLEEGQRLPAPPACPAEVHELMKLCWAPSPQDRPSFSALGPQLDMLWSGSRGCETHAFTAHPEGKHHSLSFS

TEC = TEC (Homo sapiens, UniProt P42680); assay: Kinase profiling; type: biochemical
Chain of TEC (P42680 whole entry): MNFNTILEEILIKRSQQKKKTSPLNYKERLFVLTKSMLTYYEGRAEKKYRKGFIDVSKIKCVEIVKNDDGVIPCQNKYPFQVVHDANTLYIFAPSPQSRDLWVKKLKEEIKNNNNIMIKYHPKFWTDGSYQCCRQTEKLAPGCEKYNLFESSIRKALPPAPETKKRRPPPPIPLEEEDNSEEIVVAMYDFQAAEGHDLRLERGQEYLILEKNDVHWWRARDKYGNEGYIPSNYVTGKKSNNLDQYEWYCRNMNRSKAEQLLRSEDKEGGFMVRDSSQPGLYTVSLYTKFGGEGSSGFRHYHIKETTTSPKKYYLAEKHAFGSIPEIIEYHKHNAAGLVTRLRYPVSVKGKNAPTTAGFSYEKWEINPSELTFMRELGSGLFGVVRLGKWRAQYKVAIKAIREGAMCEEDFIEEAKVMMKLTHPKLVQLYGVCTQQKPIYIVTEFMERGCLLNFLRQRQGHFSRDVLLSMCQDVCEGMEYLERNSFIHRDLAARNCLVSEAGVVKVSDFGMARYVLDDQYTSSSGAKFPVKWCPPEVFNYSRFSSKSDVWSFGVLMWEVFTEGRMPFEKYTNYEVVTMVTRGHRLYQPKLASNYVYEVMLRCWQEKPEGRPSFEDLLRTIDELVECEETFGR

TMD8 cells [5] = assay: Cell cytotoxicity assay; type: cell-based; conditions: Homo sapiens, TMD8, 96 h, read-out: IC50 cell proliferation TMD8
HBL‐1 cells = assay: Cell cytotoxicity assay; type: cell-based; conditions: HBL1, 96 h, read-out: IC50 cell proliferation HBL‐1
U2932 cells = assay: Cell cytotoxicity assay; type: cell-based; conditions: for IC50: Homo sapiens
Raji cells = assay: Cell cytotoxicity assay; type: cell-based; conditions: Homo sapiens, read-out: cell killing potency (IC50) Raji
BTK [6] = target: T1, BTK; assay: Fluorescence competition binding assay
BTK [7] = target: T1, BTK; assay: Receptor residence time after washout in THP‐1 cells; type: binding; conditions: 500 nmol/L for 1 hour, 24 hours, densitometric scanning
phospho‐BTK (Y223) = assay: Phospho‐protein analysis in THP‐1 cells; type: cell-based, human
phospho‐PLCγ2 (Y1217) = assay: Phospho‐protein analysis in THP‐1 cells; type: cell-based; conditions: Homo sapiens, THP-1, 1 h, read-out: IC50 PLCγ2‐phosphorylation (Y1217)
TNF‐α secretion = assay: Cytokine ELISA, TNF‐α secretion in THP‐1 cells; type: cell-based; conditions: Homo sapiens, THP-1, read-out: IC50 TNF‐α secretion
IL‐8 secretion = assay: Cytokine ELISA, IL‐8 secretion in TMD8 cells; type: cell-based; conditions: Homo sapiens, TMD8, 16 h, read-out: IC50 IL‐8 secretion
pH dependent solubility = type: physicochemical
[8] = Caco‐2 permeability/efflux ratio; type: in vitro ADME; conditions: human, Caco-2
Caco‐2 cell monolayers = assay: Caco‐2 permeability/efflux ratio; type: in vitro ADME; conditions: Caco2 monolayer
[9] = In vitro metabolism in liver microsomes; type: in vitro ADME; conditions: mouse liver microsomes
[10] = In vitro metabolism in liver microsomes; type: in vitro ADME; conditions: rat liver microsomes
[11] = In vitro metabolism in liver microsomes; type: in vitro ADME; conditions: dog liver microsomes
[12] = In vitro metabolism in liver microsomes; type: in vitro ADME; conditions: human liver microsomes
[13] = In vitro metabolism in liver microsomes; type: in vitro ADME; conditions: monkey liver microsomes
CYP1A2 = CYP1A2 (Homo sapiens, UniProt P05177); assay: In vitro CYP inhibition in human liver microsomes; type: in vitro ADME
Chain of CYP1A2 (P05177 whole entry): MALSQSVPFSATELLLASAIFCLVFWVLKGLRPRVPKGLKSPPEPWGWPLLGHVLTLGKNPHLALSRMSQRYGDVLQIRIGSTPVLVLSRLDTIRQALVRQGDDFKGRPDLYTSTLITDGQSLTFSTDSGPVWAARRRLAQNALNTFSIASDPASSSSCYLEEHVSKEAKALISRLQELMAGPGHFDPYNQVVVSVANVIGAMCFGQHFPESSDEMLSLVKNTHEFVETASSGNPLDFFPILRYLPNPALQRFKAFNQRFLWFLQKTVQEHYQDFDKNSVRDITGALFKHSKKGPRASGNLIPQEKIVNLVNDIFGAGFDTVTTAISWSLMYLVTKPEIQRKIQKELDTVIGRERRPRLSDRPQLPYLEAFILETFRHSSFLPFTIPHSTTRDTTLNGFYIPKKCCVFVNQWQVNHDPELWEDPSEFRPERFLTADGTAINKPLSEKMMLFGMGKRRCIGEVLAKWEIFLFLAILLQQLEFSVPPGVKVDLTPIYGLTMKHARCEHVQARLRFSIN

CYP2C19 = CYP2C19 (Homo sapiens, UniProt P33261); assay: In vitro CYP inhibition in human liver microsomes; type: in vitro ADME
CYP2D6 = CYP2D6 (Homo sapiens, UniProt P10635); assay: In vitro CYP inhibition in human liver microsomes; type: in vitro ADME
CYP3A4 = CYP3A4 (Homo sapiens, UniProt P08684); assay: In vitro CYP inhibition in human liver microsomes; type: in vitro ADME
Chain of CYP3A4 (P08684 whole entry): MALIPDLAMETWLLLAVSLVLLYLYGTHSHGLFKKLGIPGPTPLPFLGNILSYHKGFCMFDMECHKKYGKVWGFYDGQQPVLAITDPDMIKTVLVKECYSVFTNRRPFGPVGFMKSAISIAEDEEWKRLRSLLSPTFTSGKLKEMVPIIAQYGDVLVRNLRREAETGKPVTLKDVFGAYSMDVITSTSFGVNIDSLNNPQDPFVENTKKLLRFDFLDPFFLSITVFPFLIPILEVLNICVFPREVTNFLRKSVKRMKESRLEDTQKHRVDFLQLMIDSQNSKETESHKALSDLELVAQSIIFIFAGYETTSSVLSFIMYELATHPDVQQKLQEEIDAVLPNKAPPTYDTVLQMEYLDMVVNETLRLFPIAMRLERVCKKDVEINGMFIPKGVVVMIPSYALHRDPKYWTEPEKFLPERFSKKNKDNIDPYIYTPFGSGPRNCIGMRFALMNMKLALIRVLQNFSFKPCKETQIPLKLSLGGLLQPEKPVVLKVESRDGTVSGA

CYP2C8 = CYP2C8 (Homo sapiens, UniProt P10632); assay: In vitro CYP inhibition in human liver microsomes; type: in vitro ADME
Chain of CYP2C8 (P10632 whole entry): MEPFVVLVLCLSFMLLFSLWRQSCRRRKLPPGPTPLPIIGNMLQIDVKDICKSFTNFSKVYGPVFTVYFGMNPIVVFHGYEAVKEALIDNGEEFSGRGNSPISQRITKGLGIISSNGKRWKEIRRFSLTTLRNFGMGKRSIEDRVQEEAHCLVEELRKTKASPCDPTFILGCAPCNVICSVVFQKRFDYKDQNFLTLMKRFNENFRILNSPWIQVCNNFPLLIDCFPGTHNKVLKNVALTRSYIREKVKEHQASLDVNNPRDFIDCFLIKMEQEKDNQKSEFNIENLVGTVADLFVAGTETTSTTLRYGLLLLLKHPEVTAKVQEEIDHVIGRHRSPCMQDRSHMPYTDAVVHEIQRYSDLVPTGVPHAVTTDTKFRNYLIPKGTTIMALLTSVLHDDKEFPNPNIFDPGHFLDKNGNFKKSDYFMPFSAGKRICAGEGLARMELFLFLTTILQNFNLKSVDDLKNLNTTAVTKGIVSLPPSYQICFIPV

CYP2C9 = CYP2C9 (Homo sapiens, UniProt P11712); assay: In vitro CYP inhibition in human liver microsomes; type: in vitro ADME
Chain of CYP2C9 (P11712 whole entry): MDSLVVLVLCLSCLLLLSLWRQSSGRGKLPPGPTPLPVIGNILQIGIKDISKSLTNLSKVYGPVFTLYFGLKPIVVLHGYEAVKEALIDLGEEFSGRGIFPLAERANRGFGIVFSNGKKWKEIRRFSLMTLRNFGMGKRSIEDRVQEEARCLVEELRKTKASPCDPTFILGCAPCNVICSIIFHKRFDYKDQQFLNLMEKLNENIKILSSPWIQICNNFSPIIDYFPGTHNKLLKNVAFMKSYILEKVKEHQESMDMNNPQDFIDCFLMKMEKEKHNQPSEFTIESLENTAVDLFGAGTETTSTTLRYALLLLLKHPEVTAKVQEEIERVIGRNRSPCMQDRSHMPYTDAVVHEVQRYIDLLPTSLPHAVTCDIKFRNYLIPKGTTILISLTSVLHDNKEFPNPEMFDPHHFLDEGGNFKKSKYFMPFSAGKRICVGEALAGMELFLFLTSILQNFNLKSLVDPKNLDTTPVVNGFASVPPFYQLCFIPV

Plasma protein binding [14] = type: in vitro ADME; conditions: rat
Plasma protein binding [15] = type: in vitro ADME; conditions: human
[16] = In vivo pharmacokinetics in mice; conditions: male, BALB/c, mouse, plasma
[17] = In vivo pharmacokinetics in rats; set-up: species or system male Wistar rats; conditions: rat
[18] = tested on: collagen‐induced arthritis (CIA); assay: Collagen‐induced arthritis in mice; type: in vivo, DBA1/J male mice; conditions: for reduction of clinical scores compared with vehicle controls: at study termination; for group mean histologic severity score of paws: vehicle 10.4
SCW induced arthritis = assay: Streptococcal cell wall; type: in vivo, Sprague Dawley rats
[19] = Toxicological studies in rats; type: in vivo; conditions: rats up to 300 mg/kg dose (unpublished observation)
[20] = tested on: TMD‐8 DLBCL xenograft tumor; assay: TMD‐8 xenograft model; conditions: for tumor growth inhibition: 20 consecutive days
IL‐6 secretion = assay: Cytokine ELISA, IL‐6 secretion in TMD8 cells; conditions: read-out: IC50 IL‐6 secretion, TMD‐8 cells, 16 hours
U2932 cell line = conditions: cited from earlier work
IL‐6 = conditions: read-out: IC50 for IL‐6 inhibition; in‐vitro assays; cited from earlier work
arthritis = conditions: cited from earlier work
[21] = male, Wistar, plasma, iv, 1 mg/kg
[22] = male, Wistar, plasma, po, 3 mg/kg

With `Cc1nc(Nc2ncc(C(=O)Nc3c(C)cccc3Cl)s2)cc(N2CCN(CCO)CC2)n1` [dasatinib] the “cytotoxic effect after drug wash‐off” value (TMD8 cells [1]; 100 nmol/L) was “failed to exert its effect when washed off; also recorded: completely lost its cytotoxic potential”.
In the case of `CC#CC(=O)N1CCC[C@H]1c1nc(-c2ccc(C(=O)Nc3ccccn3)cc2)c2c(N)nccn12` [ACP‐196], the “activity for the mutant BTK” value (mutant BTK (C481S) [2]) is listed as “appreciable activity”.
Work on `C=CC(=O)N1CC2CC(n3nc(-c4ccc(C(=O)Nc5ccccn5)cc4)c4c(N)ncnc43)CC2C1` (centres unmarked) [ZYBT1, 4‐(1‐(2‐acryloyloctahydrocyclopenta[c]pyrrol‐5‐yl)‐4‐amino‐1H‐pyrazolo[3,4‐d]pyrimidin‐3‐yl)‐N‐(pyridin‐2‐yl)benzamide] yielded an IC50 (mutant BTK (C481S) [3]) of 14 nM, a Ki (BTK‐WT) of 14 nM and an IC50 (BTK [4]) of 27 nM. For the same compound, the IC50 (HCK) was > 10000 nM, the IC50 (JAK3) was > 10000 nM and the IC50 (TEC) was 38 nM. For the same compound, the IC50 (TMD8 cells [5]) was 1 nM, the IC50 (HBL‐1 cells) was 12 nM and the IC50 (U2932 cells; U2932, 96 h, read-out: IC50 cell proliferation U2932) was 961 nM. The IC50 (U2932 cells; U2932, read-out: IC50 U2932) was ~1000 nM, the “fold resistance of U2932 versus TMD‐8 and HBL‐1” value (U2932 cells; within ABC‐DLBCL subgroup) was ~ 1000 fold and the IC50 (Raji cells) was 15000 nM. For the same compound, the IC50 (BTK [6]) was 1 nM, the “ZYBT1 still bound with BTK after washout” value (BTK [7]) was “more than 95%” and the IC50 (phospho‐BTK (Y223); Homo sapiens, THP-1, 1 h, read-out: IC50 BTK‐phosphorylation (Y223)) was 2 nM. For the same compound, the “phosphorylation of BTK after washout” value (phospho‐BTK (Y223); THP‐1 cells, 500 nmol/L for 1 hour, washout, 24 hours) was “completely abolished”, the “concentration that completely abrogates phosphorylation of tyrosine 223” value (phospho‐BTK (Y223); THP‐1 cells, one hour) was ≥ 30 nmol/L and the IC50 (phospho‐PLCγ2 (Y1217)) was 114 nM. The IC50 (TNF‐α secretion) was 1 nM, the IC50 (IL‐8 secretion) was 0.2 nM and the solubility (pH dependent solubility; buffer, pH 4.5, aqueous buffer) was < 2 µM. For the same compound, the solubility (pH dependent solubility; buffer, pH 6.8, aqueous buffer) was < 2 µM, the solubility (pH dependent solubility; pH 1.2, simulated gastric fluid) was 500 µM (≈ 247 µg/mL) and the solubility (pH dependent solubility; purified water, water) was < 2 µM. For the same compound, the Papp at 2 µmol/L [8] was 3.3 ×10⁻⁶ cm/s, the efflux transporter substrate (Caco‐2 cell monolayers) was “substrate of efflux transporters” and the mClint [9] was 0.46 mL/min/gm liver. For the same compound, the “% metabolized” value ([9]; 1 µmol/L, 30 minutes, NADPH) was “up to 13%”, the mClint [10] was 2.62 mL/min/gm liver and the “% metabolized” value ([10]; 1 µmol/L, 30 minutes, NADPH) was 55%. The mClint [11] was 0.67 mL/min/gm liver, the “% metabolized” value ([11]; 1 µmol/L, 30 minutes, NADPH) was ≤ 18% and the mClint [12] was 1.28 mL/min/gm liver. The “% metabolized” value ([12]; 1 µmol/L, 30 minutes, NADPH) was ≤ 32%, the mCLlint [13] was 3.49 mL/min/gm liver and the “% metabolized” value ([13]; 1 µmol/L, 30 minutes, NADPH) was 66%. The IC50 (CYP1A2) was > 30000 nM, the IC50 (CYP2C19) was > 30000 nM and the IC50 (CYP2D6) was > 30000 nM. For the same compound, the IC50 (CYP3A4) was > 30000 nM, the IC50 (CYP2C8) was 5000 to 15000 nM and 5500 nM and the IC50 (CYP2C9) was 5000 to 15000 nM and 14700 nM. For the same compound, the fraction unbound (Plasma protein binding [14]) was 0.088, the fraction unbound (Plasma protein binding [15]) was 0.016 and the clearance ([16]; iv, 1 mg/kg) was 39.5 mL/min/kg. For the same compound, the half-life ([16]; iv, 1 mg/kg) was 24.6 min, the AUC ([16]; po, 3 mg/kg) was 590 ng·h/mL and the Cmax ([16]; po, 3 mg/kg) was 703 ng/mL. The Tmax ([16]; po, 3 mg/kg) was 15 min, the half-life ([16]; po, 3 mg/kg) was 45.6 min and the Vd [17, 21] was 0.88 ± 0.12 L/kg. For the same compound, the clearance [17, 21] was 36 ± 7.8 mL/min/kg, the half-life [17, 21] was 36 ± 6 min and the AUC [17, 22] was 908 ± 170 ng·h/mL. For the same compound, the bioavailability [17, 22] was 75%, the half-life [17, 22] was 132 ± 78 min and the Cmax ([17]; male, Wistar, plasma, po, 3 mg/kg, peak plasma concentration (Cmax), rats, oral (3 mg/mg), mean ± SD, n = 4) was 650 ± 222 ng/mL. For the same compound, the “exposure to free drug at efficacy dose” value ([17]; considering 91% PPB) was 360 nmol/L, the “reduction of clinical scores compared with vehicle controls” value (from here on “reduction of clinical scores”) ([18]; 0.125 mg/kg once daily oral) was 22% and the “group mean histologic severity score of paws” value ([18]; 0.125 mg/kg once daily) was 5. The “reduction of clinical scores” value ([18]; 0.25 mg/kg once daily oral) was 61%, the “group mean histologic severity score of paws” value ([18]; 0.25 mg/kg once daily) was 3.75 and the “reduction of clinical scores” value ([18]; 0.5 mg/kg once daily oral) was 93%. The “group mean histologic severity score of paws” value ([18]; 0.5 mg/kg once daily) was 1, the “efficacy in arthritis model compared with ibrutinib” value ([18]; 0.6 mg/kg ZYBT1 versus 3 mg/kg Ibrutinib) was “comparable efficacy as 3 mg/kg Ibrutinib” and the “reduction of clinical scores” value ([18]; 1 mg/kg once daily oral) was 97%. The “group mean histologic severity score of paws” value ([18]; 1 mg/kg once daily) was 0.2, the body weight change ([18]; 0.125, 0.25, 0.5 & 1 mg/kg, OD, end of the study (Figure S5)) was “did not observe any body weight change” and the “lowest, significantly efficacious dose” value ([18]; once daily) was 0.25 mg/kg. The “time to improvement in clinical signs of disease after initiation of dosing” value ([18]; once daily oral dosing) was 2 days, the “inhibition of paw volume” value (SCW induced arthritis; 75 mg/kg dose) was “complete inhibition of paw volume” and the “serum levels of IL‐6” value (SCW induced arthritis; 0.2, 1, 5, 25, 75 mg/kg) was “reduced with the treatment in a dose‐dependent manner”. The body weight (SCW induced arthritis; 0.2, 1, 5, 25, 75 mg/kg, SCW control animals lost weight) was “restored the body weight in a dose dependent manner”, the “hematological and biochemical profile, clinical signs and body weight” value [19] was “did not show any change in hematological and biochemical profile, clinical signs and body weight” and the tumor growth inhibition ([20]; 1.5 mg/kg BID oral) was 10%. For the same compound, the tumor growth inhibition ([20]; 3 mg/kg BID oral) was 50%, the “anti‐tumor efficacy compared with ibrutinib” value ([20]; 12.5 mg/kg, BID, intra peritoneal, 14 consecutive days (Figure S2)) was “comparable; also recorded: slightly better potency compared to Ibrutinib” and the tumor growth inhibition ([20]; 15 mg/kg BID oral) was 88%. For the same compound, the “anti‐tumor efficacy compared with acalabrutinib” value ([20]; 15 mg/kg, BID, p.o., 14 consecutive days (Figure S3)) was “much better efficacy than acalabrutinib”, the “effect on body weight” value ([20]; 1.5, 3 & 15 mg/kg, p.o, BID, 20 days (Figure S4)) was “does not have any effect on the body weight” and the “time for which cell killing is maintained after drug wash‐off” value (TMD8 cells [1]; 25 nmol/L) was “at least 48 hours”. It also gave an IC50 (IL‐6 secretion) of 0.4 nM.
For `CC#CC(=O)N1CC[C@@H](n2c(=O)n(-c3ccc(Oc4ccccc4)cc3)c3c(N)ncnc32)C1` [ONO/GS‐4050], the “activity for the mutant BTK” value (mutant BTK (C481S) [2]) is listed as “appreciable activity”.
In the case of `C=CC(=O)N1CCC[C@@H](n2nc(-c3ccc(Oc4ccccc4)cc3)c3c(N)ncnc32)C1` [ibrutinib], the IC50 (mutant BTK (C481S) [2]; read-out: IC50 mutant BTK, C481S) is listed as 1000 nM, the “sensitivity of U2932 cell line to cytotoxicity” value (U2932 cell line) is listed as “resistant” and the IC50 (IL‐6) is listed as 3.9 nM. The “ED50 anti‐arthritic activity” value (arthritis) was 2.6 mg/kg/day.
